Experimental data published in patent US8691187B2, “Imaging agents for detecting neurological disorders” (Eli Lilly and Company, priority 2009, dated 2014).

Columns and labels:
Aβ plaques = biological target: T1, Aβ plaques (Homo sapiens, UniProt P05067); assay: Fluorescent compound staining on human AD brain sections (β-amyloid IHC double labeling); assay type: binding; conditions: 100 uM compound, qualitative rating + to ++++ or words
T1 construct: Native forms of tau (various isoforms, hyperphosphorylated) and amyloid aggregates are present in brain sections; from tissue; host or cells: human AD brain, frozen frontal lobe sections
T1 sequence (P05067 672-713 limits assumed): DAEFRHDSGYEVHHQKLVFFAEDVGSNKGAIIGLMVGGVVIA
Excerpt: (§1) Native forms of tau (various isoforms, hyperphosphorylated) and amyloid aggregates are present in brain sections and therefore preferred for compound testing. Using the self-fluorescence of a test compound can give an indication of whether the compound binds to tau tangles/PHFs and/or amyloid plaques. This is further confirmed by immunostaining with Aβ and tau antibodies and overlaying the images. […] However, it is possible to “rate” the signal strength qualitatively and distinguish compounds that show binding to these aggregates.
(§2) In one of the embodiments of the present invention, the self-fluorescence of the compound of formula (I) is used to determine whether the compound binds to tau/amyloid in the brain sections and to give it a qualitative rating. The next step is to proceed to the autoradiography using different brain types for further evaluation and quantitation.
(§3) Tau fluorescent compounds staining on human brain sections (Double or triple labeled with tau and β-amyloid Immunohistochemistry (IHC))
(§4) Serial sections (6 μm thick) from OCT-embedded frozen blocks of front lobe were used for staining (OCT—optimal cutting temperature). After fixation and quenching of autofluorescence, tissue sections were incubated with in 100 μM of tau compound in 50% ethanol PBS for 60 min. Then sections were dipped briefly into water, rinsed in PBS, blocked with 5% normal horse serum in PBS for 1 hour at room temperature. After blocking, the tissue was incubated with tau or β-amyloid primary antibody at 4° C. overnight in a humid chamber. Next day, the sections were washed with PBS and then incubated with secondary antibody for 1 hour.

AD brain sections = assay: Fluorescent compound staining on human AD brain sections (self-fluorescence, overall binding); conditions: for Brain Section Staining: fluorescence: Table 1 quinolines, 100 uM compound; for binding of fluorescent compound to AD brain sections confirmed by immunostaining with tau or Aβ antibodies: figure legends, double labeling at 100 uM
Excerpt: as §1, §2, §3, §4

tau aggregates = assay: Fluorescent compound staining on human AD brain sections (tau IHC double labeling); assay type: binding; conditions: 100 uM compound, qualitative rating + to ++++ or words
Excerpt: as §1, §2, §3, §4

Compound | Brain Section Staining: Ab (amyloid) (Aβ plaques; Table 1 quinolines) | Brain Section Staining: tau (tau aggregates; Table 1 quinolines) | also measured
CN(C)CCNc1cc(-c2ccccc2)nc2ccccc12 [Compound T048] | binds to Ab (amyloid) (100 uM) | – | –
c1ccc2nc(-c3ccncc3)ccc2c1 [Compound T123, 2-(Pyridin-4-yl)quinoline] | – | – | Brain Section Staining: fluorescence (AD brain sections): No fluorescence is detected at 100 uM
CN(C)c1ccc(-c2ccc3ccccc3n2)cn1 [Compound T125, N,N-Dimethyl-5-(quinolin-2-yl)pyridin-2-amine] | – | staining shows strong binding to tau | –
COc1ccc2nc(-c3ccc(N(C)C)cc3)ccc2c1 [Compound T139, 4-(6-Methoxyquinolin-2-yl)-N,N-dimethylaniline] | binds to amyloid and Tau | binds to amyloid and Tau | –
CNc1ccc(-c2ccc3cc(OCCF)ccc3n2)cc1.Cl.Cl [Compound T409] | binds to amyloid | – | –
Cl.Cl.FCCNc1ccc(-c2ccc3ccccc3n2)cc1 [Compound T411, N-(2-Fluoroethyl)-4-(quinolin-2-yl)aniline dihydrochloride] | weakly binds to Ab | binds to tau | –
[N-]=[N+]=NCCOCCOCCNc1ccc(-c2ccc3ccccc3n2)cc1 [Compound T412] | not to amyloid | binds to tau | –
CN(C)c1ccc(/C=C/c2ccc3cc(F)ccc3n2)cc1 [Compound T429] | binds to Ab | – | –
FCCOCCOCCNc1ccc(-c2ccc3ccccc3n2)cc1 [Compound T442] | binds to Tau and Ab | binds to Tau and Ab | –
Nc1ccc(-c2ccc3ccccc3n2)cc1F [Compound T445, 2-Fluoro-4-(quinolin-2-yl) aniline] | – | binds to Tau | –
CNc1ccc(C#Cc2nc3cc(OC)ccc3s2)cc1F [Compound T448] | – | – | Brain Section Staining: Ab (amyloid) (Aβ plaques; Table 2 acetylenes): binds to Ab
Cn1ccc2cc(-c3ccc4ccccc4n3)ccc21 [Compound T453, 2-(1-Methyl-1H-indol-5-yl)quinoline] | binds to Ab | – | –
FCCCNc1ccc(C#Cc2ccc3ccccc3n2)cc1 [Compound T454, N-(3-Fluoropropyl)-4-(quinolin-2-ylethynyl)aniline] | binds to Ab | – | Brain Section Staining: Ab (amyloid) (Aβ plaques; Table 2 acetylenes): binds to Ab
Fc1ccc(-c2ccc3ccccc3n2)cn1 [Compound T455, 2-(6-Fluoropyridin-3-yl)quinoline] | – | – | Brain Section Staining: fluorescence (AD brain sections): No fluorescence
CNc1ccc(-c2ccc3ccccc3n2)cc1F [Compound T458] | binds to amyloid and tau | binds to amyloid and tau | –
FCCCNc1ccc(C#Cc2nc3ccccc3[nH]2)cc1 [Compound T465, 4-((1H-Benzo[d]imidazol-2-yl)ethynyl)-N-(3-fluoropropyl)aniline] | – | – | Brain Section Staining: tau (tau aggregates; Table 2 acetylenes): binds to tau and Ab; Brain Section Staining: Ab (amyloid) (Aβ plaques; Table 2 acetylenes): binds to tau and Ab
CNc1ccc(-c2cc(F)c3ccccc3n2)cc1 [Compound T466, 4-(4-fluoroquinolin-2-yl)-N-methylaniline] | binds to tau and amyloid | binds to tau and amyloid | –
COc1ccc2nc(-c3ccc(N)c(F)c3)ccc2c1 [Compound T467, 2-Fluoro-4-(6-methoxyquinolin-2-yl)aniline] | binds to tau and amyloid | binds to tau and amyloid | –
CN(C)c1ccc(/C=C/c2cnc3ccccc3n2)cc1 [Compound T475] | binds to Ab mostly | – | –
CNc1ccc(-c2cnc3ccccc3c2)cc1 [Compound T477, N-Methyl-4-(quinolin-3-yl)aniline] | binds to Ab mostly | – | –

Compound | Brain Section Staining: Ab (amyloid) (Aβ plaques; Table 1 quinolines) | Brain Section Staining: tau (tau aggregates; Table 1 quinolines) | also measured
CNc1ccc(-c2ccc3cc(OC)ccc3n2)cc1F.Cl.Cl [Compound T483, 2-Fluoro-4-(6-methoxyquinolin-2-yl)-N-methylaniline dihydrochloride] | – | Mostly binds to Tau | –
CN(C)c1ccc(-c2cc(F)c3ccccc3n2)cc1 [Compound T484, 4-(4-Fluoroquinolin-2-yl)-N—N-dimethylaniline] | binds to Tau and Ab | binds to Tau | –
Cn1cnc2ccc(-c3cc(F)c4ccccc4n3)cc21 [Compound T485, 4-Fluoro-2-(1-methyl-1H-benzo[d]imidazol-6-yl)quinoline 2,2,2-trifluoroacetate] | weakly binds to Ab | – | –
FCCn1c(C#Cc2ccc3ccccc3n2)nc2ccccc21.O=C(O)C(F)(F)F [Compound T496] | – | – | Brain Section Staining: Ab (amyloid) (Aβ plaques; Table 2 acetylenes): Weakly binds to Ab
COc1ccc2nc(-c3ccc(N4CCN(CCCF)CC4)cc3)ccc2c1 [Compound T499, 2-(4-(4-(3-Fluoropropyl)piperazin-1-yl)phenyl)-6-methoxyquinoline] | – | – | binding of fluorescent compound to AD brain sections confirmed by immunostaining with tau or Aβ antibodies (AD brain sections): binding
CNc1ccc(-c2cc3ccccc3cn2)cc1.Cl [Compound T501, 4-(Isoquinolin-3-yl)-N-methylaniline] | – | – | Brain Section Staining: fluorescence (AD brain sections): No fluorescence
Nc1ccc(-c2ccnc3nc4ccccc4n23)cc1 [Compound T520, 4-(Benzo[4,5]imidazo[1,2-a]pyrimidin-4-yl)aniline] | – | – | binding of fluorescent compound to AD brain sections confirmed by immunostaining with tau or Aβ antibodies (AD brain sections): binding
CNc1ccc(-c2ccn3c(n2)nc2ccccc23)cc1.O=C(O)C(F)(F)F.O=C(O)C(F)(F)F [Compound T522, 4-(Benzo[4,5]imidazo[1,2-a]pyrimidin-2-yl)-N-methylaniline bistrifluoracetate] | – | – | binding of fluorescent compound to AD brain sections confirmed by immunostaining with tau or Aβ antibodies (AD brain sections): total binding
FCCOCCOCCNc1ccc(-c2ccc3ccccc3n2)cn1 [Compound T525, N-(2-(2-(2-Fluoroethoxy)ethoxy)ethyl)-5-(quinolin-2-yl)pyridin-2-amine] | – | – | binding of fluorescent compound to AD brain sections confirmed by immunostaining with tau or Aβ antibodies (AD brain sections): binding
FCCOCCOCCn1c(C#Cc2cnc3[nH]ccc3c2)nc2ccccc21.O=C(O)C(F)(F)F [Compound T527] | – | – | binding of fluorescent compound to AD brain sections confirmed by immunostaining with tau or Aβ antibodies (AD brain sections): binding
CN(C)c1ccc(-c2ccc3cc(O)ccc3n2)cc1 [Compound T531] | – | Binds to Tau | –
FCCOCCOCCOc1ccc2nc(-c3ccc(N4CCOCC4)nc3)ccc2c1 [Compound T539, 4-(5-(6-(2-(2-(2-Fluoroethoxy)ethoxy)ethoxy)quinolin-2-yl)pyridin-2-yl)morpholine] | – | – | binding of fluorescent compound to AD brain sections confirmed by immunostaining with tau or Aβ antibodies (AD brain sections): binding
Cn1c(C#Cc2ccc(NCCCF)cc2)nc2ccccc21 [Compound T540, N-(3-Fluoropropyl)-4-((1-methyl-1H-benzo[d]imidazol-2-yl)ethynyl)aniline] | – | – | binding of fluorescent compound to AD brain sections confirmed by immunostaining with tau or Aβ antibodies (AD brain sections): binding
CNc1ccc(C#Cc2nc3ccccc3n2CCOCCOCCF)cc1.O=C(O)C(F)(F)F [Compound T541] | – | – | binding of fluorescent compound to AD brain sections confirmed by immunostaining with tau or Aβ antibodies (AD brain sections): binding
FCCCNc1ccc(-c2ccn3c(n2)nc2ccccc23)cc1 [Compound T542, 4-(Benzo[4,5]imidazo[1,2-a]pyrimidin-2-yl)-N-(3-fluoropropyl)aniline] | – | – | binding of fluorescent compound to AD brain sections confirmed by immunostaining with tau or Aβ antibodies (AD brain sections): binding
FCCCNc1ccc(-c2ccnc3nc4ccccc4n23)cc1 [Compound T544, 4-(Benzo[4,5]imidazo[1,2-a]pyrimidin-4-yl)-N-(3-fluoropropyl)aniline] | – | – | binding of fluorescent compound to AD brain sections confirmed by immunostaining with tau or Aβ antibodies (AD brain sections): binding
FCCOCCOCCOc1ccc2nc(-c3ccc(N4CCOCC4)cc3)ccc2c1 [Compound T549, 4-(4-(6-(2-(2-(2-Fluoroethoxy)ethoxy)ethoxy)quinolin-2-yl)phenyl)morpholine] | – | Binds to Tau | –
CN1CCN(c2ccc(-c3ccc4cc(OCCOCCOCCF)ccc4n3)cc2)CC1 [Compound T550, 6-(2-(2-(2-Fluoroethoxy)ethoxy)ethoxy)-2-(4-(4-methylpiperazin-1-yl)phenyl)quinoline] | – | Binds to Tau | –
Fc1ccc(C#Cc2ccc3scnc3c2)cn1 [T114/ W313] | – | – | Brain Section Staining: tau (tau aggregates; Table 2 acetylenes): stains amyloid and tau; Brain Section Staining: Ab (amyloid) (Aβ plaques; Table 2 acetylenes): stains amyloid and tau
CNc1ccc(C#Cc2nc3ccc(O)cc3s2)cc1F [T118/ W366, 2-((3-fluoro-4-(methylamino)phenyl)ethynyl)benzo[d]thiazol-6-ol] | – | – | Brain Section Staining: Ab (amyloid) (Aβ plaques; Table 2 acetylenes): binds to Ab
